Experimental data as given in patent US20190282616A1, “MACROPHAGES REDIRECT PHAGOCYTOSIS BY NON-PROFESSIONAL PHAGOCYTES AND INFLUENCE INFLAMMATION” (University of Virginia Patent Foundation, priority 2016, published 2019).

Tests used:
alveolar macrophages = assay: In vivo engulfment assay: alveolar macrophages; set-up: species or system mouse; conditions: same IGF-1 treated mice
Description: (§1) CCSP-Cre/YFP mice were administered PBS or 1 μg of IGF-1 intranasally. One hour later, 100 million CypHer5E-labelled apoptotic thymocytes with or without IGF-I were injected intranasally for 3.5 hours. The BAL fluid was harvested and the lungs excised, minced, and digested into a single cell suspension. The cells were then stained with appropriate markers: CD11c and Siglec F for alveolar macrophage markers and EpCam (along with YFP expression) for airway epithelial cells and analyzed by flow cytometry to assess apoptotic cell uptake by the airway epithelial cells and the alveolar macrophages.

IC-21 cells = assay: Apoptotic thymocyte engulfment by IC-21 cells; assay type: cell-based; conditions: indicated concentrations of mouse IGF-1 or human insulin
[1] = test system: IGF-1R, Akt and Erk1/2 phosphorylation in LR73 cells; assay: Immunoblotting of signaling in LR73 cells; assay type: cell-based, hamster; conditions: LR73 cells, IGF-1 treatment
Description: LR73, J774, or BEAS-2B cells were seeded in a 60 mm dish at a concentration of 5×10^5. […] Cells were lysed in RIPA buffer and used in Western blots. The blots were probed for phospho-Erk1/2 (Cell Signaling Technology, #4370), phospho-Akt (Cell Signaling Technology, #4060), phospho-IGF-1R (Cell Signaling, #3024), total Erk2 (Santa Cruz Biotechnology, #sc-154-G), total Akt (Cell Signaling Technology, #4691), total IGF-1R (Cell Signaling, #9750), and anti-B-actin-HRP (Sigma-Aldrich, #A3854) followed by chemiluminescence detection.

[2] = test system: YFP airway epithelial cells; assay: In vivo engulfment assay: airway epithelial cells; set-up: species or system mouse; conditions: 1 μg IGF-1 intranasally
Description: as §1

LR73 cells [3] = assay: In vitro engulfment assay: apoptotic thymocyte uptake by LR73 cells; assay type: cell-based, hamster
Description: LR73, SVEC-40, BEAS-2B, and 16HBE14o-cells were seeded in a 24 well plate. Thymocytes were isolated from 4-6 week old mice and induced to undergo apoptosis with dexamethasone. Thymocytes or prepared microvesicles were then stained with either CypHer5E (GE Healthcare, PA15401) or TAMRA (Invitrogen, C-1171). LR73 and SVEC-40 cells were incubated with apoptotic thymocytes at a 1:10 phagocyte to target ratio, BEAS-2B at a 1:5 phagocyte to target ratio, and 16HBE14o—at a 1:20 phagocyte to target ratio for 2 hours. Mouse IGF-I (Sigma-Aldrich), human IGF-I (Sigma-Aldrich), human IGF-II (Sigma-Aldrich) were added to the phagocytes at the same time as addition of apoptotic targets. For IGFBP3 studies, IGFBP3 (Sigma-Aldrich) was added to media or supernatant from J774 cells for one hour to allow IGFBP3 to bind to any available IGF-I, then the mix is added to phagocytes along with apoptotic targets. For all pharmacological studies, phagocytes were pre-incubated with the compounds listed below for one hour prior to addition of apoptotic targets: cytochalasin D (Sigma-Aldrich, C8273, 1 μM), Latrunculin A (Tocris, 3973, 150 nM), CK-666 (Tocris, 3950, 25 μM-100 μM), OSI-906 (Selleckchem, S1091, 5 nM-40 nM), NVP-AEW541 (Selleckchem, S1034, 25 nM-100 nM), Rapamycin (Sigma-Aldrich, R0395, […]), MK-2206 2HCl (Selleckchem, S1078, 10 nM-1 U0126-EtOH (Selleckchem, S1102, […]), Wortmannin (Sigma-Aldrich, W1628, 50 nM-200 nM), Y27632 (Calbiochem, 688000, 3.75 μM-15 μM), or GSK269962 (Tocris, 4009, 80 nM-2 μM). […] Targets were then washed off three times with PBS, and the cells were dissociated from the plate with trypsin and the engulfment assessed by flow cytometry.

LR73 cells [4] = assay: as above; assay type: cell-based, hamster; conditions: LR73 cells pretreated with IGF-I, washed
[5] = test system: 16HBE14o- human airway epithelial cells; assay: In vitro engulfment assay: apoptotic thymocyte uptake by 16HBE14o- cells; assay type: cell-based; conditions: IGF-1 treatment
Description: (§2) LR73, SVEC-40, BEAS-2B, and 16HBE14o-cells were seeded in a 24 well plate. Thymocytes were isolated from 4-6 week old mice and induced to undergo apoptosis with dexamethasone. Thymocytes or prepared microvesicles were then stained with either CypHer5E (GE Healthcare, PA15401) or TAMRA (Invitrogen, C-1171). LR73 and SVEC-40 cells were incubated with apoptotic thymocytes at a 1:10 phagocyte to target ratio, BEAS-2B at a 1:5 phagocyte to target ratio, and 16HBE14o—at a 1:20 phagocyte to target ratio for 2 hours. Mouse IGF-I (Sigma-Aldrich), human IGF-I (Sigma-Aldrich), human IGF-II (Sigma-Aldrich) were added to the phagocytes at the same time as addition of apoptotic targets. For IGFBP3 studies, IGFBP3 (Sigma-Aldrich) was added to media or supernatant from J774 cells for one hour to allow IGFBP3 to bind to any available IGF-I, then the mix is added to phagocytes along with apoptotic targets. […] Targets were then washed off three times with PBS, and the cells were dissociated from the plate with trypsin and the engulfment assessed by flow cytometry.

[6] = test system: phosphatidylserine (PtdSer) on apoptotic thymocytes; assay: Annexin V binding to apoptotic thymocytes; assay type: cell-based, mouse; conditions: n=6
[7] = test system: bone marrow derived macrophages; assay: Apoptotic cell engulfment by bone marrow derived macrophages; assay type: cell-based, mouse; conditions: even with supra-physiological concentrations of IGF-1
Description: (§3) To obtain bone-marrow derived macrophages, femurs were removed from 8 week old mice and flushed with 5 mL of sterile PBS containing 5% FBS. The cell suspension was centrifuged, treated with red blood cell lysis buffer, washed, and then plated onto sterile petri dishes in DMEM containing 10% L929 media, 10% FBS and 1% penicillin/streptomycin/glutamine (PSQ). Media was replenished every 2 to 3 days and differentiated cells were used at day 6 post-harvest. Resident peritoneal macrophages were obtained by flushing the peritoneal cavity of mice with 10 mL of cold PBS containing 5% FBS. Collected cells were spun down, resuspended in X-VIVO 10 (Lonza) and plated at a concentration of 3×10^5 cells per well in a 24 well plate for IGF-1 secretion assays, and 5×10^5 per well in a 24 well plate for engulfment assays. Floating cells were washed the next day and remaining peritoneal macrophages were used 2 days after isolation. Alveolar macrophages were isolated by flushing the lungs with 1 mL of cold PBS instilled intratracheally (five flushes). Collected cells were centrifuged, resuspended in F12K media containing 10% FBS and 1% PSQ, and seeded at 1×10^5 cells per well in a 48-well plate. All floating cells were washed away the next day and remaining cells were used in assays 2 days after isolation.

[8] = test system: SVEC-40 endothelial cells; assay: In vitro engulfment assay: apoptotic thymocyte uptake by SVEC-40 cells; assay type: cell-based, mouse; conditions: IGF-1 treatment
Description: as §2

[9] = test system: resident peritoneal macrophages; assay: Apoptotic cell engulfment by resident peritoneal macrophages; assay type: cell-based, mouse; conditions: even with supra-physiological concentrations of IGF-1
Description: as §3

[10] = test system: IGF-1R and Akt phosphorylation in macrophages; assay: Immunoblotting of IGF-1R and Akt phosphorylation in macrophages; assay type: cell-based; conditions: 100 ng/mL mouse IGF-1
Description: LR73, J774, or BEAS-2B cells were seeded in a 60 mm dish at a concentration of 5×10^5. Cells were serum-starved for 6 hours and then stimulated with 100 ng/mL of IGF-1 for various time points. Cells were lysed in RIPA buffer and used in Western blots. The blots were probed for phospho-Erk1/2 (Cell Signaling Technology, #4370), phospho-Akt (Cell Signaling Technology, #4060), phospho-IGF-1R (Cell Signaling, #3024), total Erk2 (Santa Cruz Biotechnology, #sc-154-G), total Akt (Cell Signaling Technology, #4691), total IGF-1R (Cell Signaling, #9750), and anti-B-actin-HRP (Sigma-Aldrich, #A3854) followed by chemiluminescence detection.

Substance: insulin-like growth factor I [IGF-1]
- engulfment of apoptotic cells or liposomes by lung macrophages in vivo (alveolar macrophages): unaffected in their ability to engulf these targets
- corpse uptake by IC-21 cells (IC-21 cells): did not affect corpse uptake
- phosphorylation of Akt [1]: elicited phosphorylation of Akt
- apoptotic cell engulfment by YFP airway epithelial cells in vivo ([2]; apoptotic thymocytes): decreased apoptotic cell engulfment
- liposome uptake by YFP airway epithelial cells in vivo ([2]; liposomes): enhanced lipo some uptake
- engulfment with IGF-1 added simultaneously with apoptotic cells (LR73 cells [3]; data not shown): inhibited engulfment similar to pre-treated cells
- apoptotic cell uptake (engulfment) by LR73 cells (LR73 cells [3]; soluble mediator alone, IGF-I at concentrations reported in serum (100-600 ng/mL), other factors over a range of concentrations): significantly dampened apoptotic cell uptake
- apoptotic cell uptake by LR73 cells with macrophage produced IGF-1 (LR73 cells [3]; supernatant of J774 cells treated with rIL-4 for 24 hrs): could also suppress apoptotic cell uptake by LR73 cells
- engulfment after washing phagocytes pre-treated with IGF-1 (reversibility) (LR73 cells [4]): near complete restoration of engulfment
- apoptotic thymocyte uptake by 16HBE14o- cells [5]: engulfment dampening effect of IGF-1 was also seen
- masking of phosphatidylserine on apoptotic cells (Annexin V binding) [6]: not due to masking phosphatidylserine
- corpse uptake by bone marrow-derived macrophages [7]: did not affect corpse uptake
- apoptotic thymocyte uptake by SVEC-40 cells [8]: engulfment dampening effect of IGF-1 was also seen
- corpse uptake by resident peritoneal macrophages [9]: did not affect corpse uptake
- early signaling in macrophages (IGF-1R and Akt phosphorylation) [10]: initiated early signaling in macrophages
